Measurements taken from patent publication US8329717B2, “Pyrimidine derivatives and their use for controlling undesired plant growth” (Bayer Cropscience AG, priority 2008, dated 2012).

What was measured:
[1] = tested on: Abutilon theophrasti; experiment: Pre-emergence herbicidal effect; assay type: in vivo; details: Dosage 320 g/ha, visual scoring after 3 weeks vs untreated controls, 100% = plants have died
How it was run: (§1)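 Damage rated visually after 3 weeks in greenhouse relative to untreated plants, 100% meaning plants died and 0% unaffected. Compounds, dosed in grams per hectare as WP or EC in 600 to 800 l/ha water plus 0.2% wetting agent, were applied pre-emergence to soil over seeds sown in sandy loam.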

[2] = tested on: Alopecurus myosuroides; experiment: Pre-emergence herbicidal effect; assay type: in vivo; details: Dosage 320 g/ha, visual scoring after 3 weeks vs untreated controls, 100% = plants have died
How it was run: as §1

[3] = tested on: Amaranthus retroflexus; experiment: Pre-emergence herbicidal effect; assay type: in vivo; details: Dosage 320 g/ha, visual scoring after 3 weeks vs untreated controls, 100% = plants have died
How it was run: as §1

[4] = tested on: Avena fatua; experiment: Pre-emergence herbicidal effect; assay type: in vivo; details: Dosage 320 g/ha, visual scoring after 3 weeks vs untreated controls, 100% = plants have died
How it was run: as §1

[5] = tested on: Cyperus esculentus; experiment: Pre-emergence herbicidal effect; assay type: in vivo; details: Dosage 320 g/ha, visual scoring after 3 weeks vs untreated controls, 100% = plants have died
How it was run: as §1

[6] = tested on: Echinochloa crus-galli; experiment: Pre-emergence herbicidal effect; assay type: in vivo; details: Dosage 320 g/ha, visual scoring after 3 weeks vs untreated controls, 100% = plants have died
How it was run: as §1

[7] = tested on: Lolium multiflorum; experiment: Pre-emergence herbicidal effect; assay type: in vivo; details: Dosage 320 g/ha, visual scoring after 3 weeks vs untreated controls, 100% = plants have died
How it was run: as §1

[8] = tested on: Matricaria inodora; experiment: Pre-emergence herbicidal effect; assay type: in vivo; details: Dosage 320 g/ha, visual scoring after 3 weeks vs untreated controls, 100% = plants have died
How it was run: as §1

[9] = tested on: Setaria viridis; experiment: Pre-emergence herbicidal effect; assay type: in vivo; details: Dosage 320 g/ha, visual scoring after 3 weeks vs untreated controls, 100% = plants have died
How it was run: as §1

[10] = tested on: Stellaria media; experiment: Pre-emergence herbicidal effect; assay type: in vivo; details: Dosage 320 g/ha, visual scoring after 3 weeks vs untreated controls, 100% = plants have died
How it was run: as §1

[11] = tested on: Veronica persica; experiment: Pre-emergence herbicidal effect; assay type: in vivo; details: Dosage 320 g/ha, visual scoring after 3 weeks vs untreated controls, 100% = plants have died
How it was run: as §1

[12] = tested on: PHBPU; experiment: Post-emergence herbicidal effect; assay type: in vivo; details: Dosage 320 g/ha, one-leaf stage, visual scoring after ca. 3 weeks vs untreated controls, 100% = plants have died
Method: (§2) 2. Post-Emergence Herbicidal Effect and Crop Plant Compatibility Seeds of monocotyledonous or dicotyledonous weed plants or crop plants are planted in wood-fiber pots in sandy loam, covered with earth and grown in a greenhouse under good growth conditions. 2 to 3 weeks after sowing, the test plants are treated in the one-leaf stage. The compounds according to the invention, formulated in the form of wettable powders (WP) or as emulsion concentrates (EC), are then sprayed onto the green plant parts as aqueous suspension or emulsion at a water application rate of 600 to 800 l/ha (converted) with the addition of 0.2% of wetting agent. The dosage of the compounds according to the invention is given in grams per hectare. After ca. 3 weeks' standing time of the test plants in the greenhouse under optimum growth conditions, the effect of the preparations is scored visually in comparison with untreated controls (herbicidal effect in percent (%): 100% effect=plants have died, 0% effect=as control plants).

[13] = tested on: Abutilon theophrasti; experiment: Post-emergence herbicidal effect; assay type: in vivo; details: Dosage 320 g/ha, one-leaf stage, visual scoring after ca. 3 weeks vs untreated controls, 100% = plants have died
Method: as §2, with “The following abbreviations are used in the tables below: [table] 2.” for “2.”

[14] = tested on: Alopecurus myosuroides; experiment: Post-emergence herbicidal effect; assay type: in vivo; details: Dosage 320 g/ha, one-leaf stage, visual scoring after ca. 3 weeks vs untreated controls, 100% = plants have died
Method: as §2, with “The following abbreviations are used in the tables below: [table] 2.” for “2.”

[15] = tested on: Amaranthus retroflexus; experiment: Post-emergence herbicidal effect; assay type: in vivo; details: Dosage 320 g/ha, one-leaf stage, visual scoring after ca. 3 weeks vs untreated controls, 100% = plants have died
Method: as §2, with “The following abbreviations are used in the tables below: [table] 2.” for “2.”

[16] = tested on: Echinochloa crus-galli; experiment: Post-emergence herbicidal effect; assay type: in vivo; details: Dosage 320 g/ha, one-leaf stage, visual scoring after ca. 3 weeks vs untreated controls, 100% = plants have died
Method: as §2, with “The following abbreviations are used in the tables below: [table] 2.” for “2.”

[17] = tested on: Lolium multiflorum; experiment: Post-emergence herbicidal effect; assay type: in vivo; details: Dosage 320 g/ha, one-leaf stage, visual scoring after ca. 3 weeks vs untreated controls, 100% = plants have died
Method: as §2, with “The following abbreviations are used in the tables below: [table] 2.” for “2.”

[18] = tested on: Matricaria inodora; experiment: Post-emergence herbicidal effect; assay type: in vivo; details: Dosage 320 g/ha, one-leaf stage, visual scoring after ca. 3 weeks vs untreated controls, 100% = plants have died
Method: as §2, with “The following abbreviations are used in the tables below: [table] 2.” for “2.”

[19] = tested on: Setaria viridis; experiment: Post-emergence herbicidal effect; assay type: in vivo; details: Dosage 320 g/ha, one-leaf stage, visual scoring after ca. 3 weeks vs untreated controls, 100% = plants have died
Method: as §2, with “The following abbreviations are used in the tables below: [table] 2.” for “2.”

[20] = tested on: Stellaria media; experiment: Post-emergence herbicidal effect; assay type: in vivo; details: Dosage 320 g/ha, one-leaf stage, visual scoring after ca. 3 weeks vs untreated controls, 100% = plants have died
Method: as §2, with “The following abbreviations are used in the tables below: [table] 2.” for “2.”

[21] = tested on: Veronica persica; experiment: Post-emergence herbicidal effect; assay type: in vivo; details: Dosage 320 g/ha, one-leaf stage, visual scoring after ca. 3 weeks vs untreated controls, 100% = plants have died
Method: as §2, with “The following abbreviations are used in the tables below: [table] 2.” for “2.”

[22] = tested on: Viola tricolor; experiment: Post-emergence herbicidal effect; assay type: in vivo; details: Dosage 320 g/ha, one-leaf stage, visual scoring after ca. 3 weeks vs untreated controls, 100% = plants have died
Method: as §2, with “The following abbreviations are used in the tables below: [table] 2.” for “2.”

[23] = tested on: Polygonum convolvulus; experiment: Pre-emergence herbicidal effect; assay type: in vivo; details: Dosage 320 g/ha, visual scoring after 3 weeks vs untreated controls, 100% = plants have died
How it was run: as §1

[24] = tested on: Viola tricolor; experiment: Pre-emergence herbicidal effect; assay type: in vivo; details: Dosage 320 g/ha, visual scoring after 3 weeks vs untreated controls, 100% = plants have died
How it was run: as §1

[25] = tested on: Polygonum convolvulus; experiment: Post-emergence herbicidal effect; assay type: in vivo; details: Dosage 320 g/ha, one-leaf stage, visual scoring after ca. 3 weeks vs untreated controls, 100% = plants have died
Method: as §2, with “The following abbreviations are used in the tables below: [table] 2.” for “2.”

[26] = tested on: Avena fatua; experiment: Post-emergence herbicidal effect; assay type: in vivo; details: Dosage 320 g/ha, one-leaf stage, visual scoring after ca. 3 weeks vs untreated controls, 100% = plants have died
Method: as §2, with “The following abbreviations are used in the tables below: [table] 2.” for “2.”

[27] = logp (HCOOH), chemicophysical data; details: for chromatographic logP: HCOOH (formic acid)

Row | Compound | Pre-emergence herbicidal effect ABUTH [1] [%] | Pre-emergence herbicidal effect ALOMY [2] [%] | Pre-emergence herbicidal effect AMARE [3] [%] | Pre-emergence herbicidal effect AVEFA [4] [%] | Pre-emergence herbicidal effect ECHCG [6] [%] | Pre-emergence herbicidal effect LOLMU [7] [%] | Pre-emergence herbicidal effect MATIN [8] [%] | Pre-emergence herbicidal effect SETVI [9] [%] | Pre-emergence herbicidal effect STEME [10] [%] | Pre-emergence herbicidal effect VERPE [11] [%] | Post-emergence herbicidal effect PHBPU [12] [%] | Post-emergence herbicidal effect ALOMY [14] [%] | Post-emergence herbicidal effect AMARE [15] [%] | Post-emergence herbicidal effect ECHCG [16] [%] | Post-emergence herbicidal effect LOLMU [17] [%] | Post-emergence herbicidal effect SETVI [19] [%] | Post-emergence herbicidal effect STEME [20] [%] | Post-emergence herbicidal effect VERPE [21] [%] | Pre-emergence herbicidal effect POLCO [23] [%] | Pre-emergence herbicidal effect VIOTR [24] [%] | further results
1 | Cc1nc(N[C@@H]2CCCc3ccccc32)nc(N)c1C#N [Example 1.18] | 100 | 100 | 100 | 90 | 100 | 100 | 100 | 100 | 100 | 100 | 80 | 85 | 85 | 87 | 87 | 90 | 93 | 83 | – | – | Pre-emergence herbicidal effect CYPES [5]: 80%; Post-emergence herbicidal effect ABUTH [13]: 85%; Post-emergence herbicidal effect MATIN [18]: 80%; Post-emergence herbicidal effect VIOTR [22]: 85%
2 | Cc1nc(N[C@@H]2CCOc3c(F)cccc32)nc(N)c1C#N [Example 1.26] | 80 | 100 | 100 | 90 | 100 | 100 | 100 | 100 | 100 | 100 | 90 | 85 | 85 | 90 | 90 | – | 90 | 95 | 90 | 100 | Post-emergence herbicidal effect ABUTH [13]: 80%; Post-emergence herbicidal effect MATIN [18]: 80%; Post-emergence herbicidal effect POLCO [25]: 80%; Post-emergence herbicidal effect VIOTR [22]: 85%
3 | N#Cc1cnc(N[C@@H]2CCCc3ccccc32)nc1N [Example 1.30, 4-Amino-2-[(1R)-1,2,3,4-tetrahydronaphthalen-1-ylamino]pyrimidine-5-carbonitrile] | – | 100 | 100 | 100 | 100 | 100 | 100 | 100 | 100 | 100 | – | 95 | 93 | 100 | 100 | 95 | 80 | 90 | 100 | 100 | Post-emergence herbicidal effect AVEFA [26]: 100%; Post-emergence herbicidal effect MATIN [18]: 80%; Post-emergence herbicidal effect POLCO [25]: 80%; chromatographic logP [27]: 1.92
4 | Cc1ccc2c(c1)[C@H](Nc1ncc(F)c(N)n1)[C@@H](C)C2 [Example 1.56] | – | 100 | 100 | 100 | 100 | 100 | 100 | 100 | 100 | 100 | 90 | 85 | 80 | 90 | 93 | 80 | 80 | 90 | 95 | 100 | Pre-emergence herbicidal effect CYPES [5]: 80%; Post-emergence herbicidal effect AVEFA [26]: 80%; logp (HCOOH) ([27]; HCOOH): wax-like; logp (HCOOH): 1.20; 1H-NMR (CDCl3, 400 MHZ, δ in ppm): 1.25 (d, 3H, CH3);
5 | Cc1ccc2c(c1)[C@H](Nc1ncc(Br)c(N)n1)[C@@H](C)C2 [Example 1.67, 5-Bromo-N2-[(1R,2S)-2,6-dimethyl-2,3-dihydro-1H-inden-1-yl]pyrimidine-2,4-diamine] | 90 | 95 | 100 | 80 | 100 | 95 | 100 | 100 | 100 | 100 | 93 | 85 | 90 | 95 | 87 | 87 | 90 | 85 | 100 | 100 | Post-emergence herbicidal effect ABUTH [13]: 90%; Post-emergence herbicidal effect MATIN [18]: 80%; Post-emergence herbicidal effect POLCO [25]: 85%; Post-emergence herbicidal effect VIOTR [22]: 80%; chromatographic logP [27]: 1.3
6 | CC[C@H]1Cc2ccccc2[C@@H]1Nc1ncc(C#N)c(N)n1 [Example 1.129] | 80 | 100 | 100 | 90 | 100 | 100 | 100 | 100 | 100 | 100 | – | 90 | 90 | 100 | 90 | 90 | 90 | 90 | 100 | 100 | Pre-emergence herbicidal effect CYPES [5]: 80%; Post-emergence herbicidal effect ABUTH [13]: 90%; Post-emergence herbicidal effect AVEFA [26]: 80%; Post-emergence herbicidal effect POLCO [25]: 90%; Post-emergence herbicidal effect VIOTR [22]: 80%
